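Cultured in 96-well plates, cells were exposed to test compound for 48 hours across five concentrations. GI50: concentration for 50% inhibition of growth.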 Activity calls are given as the source filed them. No stated cut-off is given here; in the data, active = GI50 up to about 1.1 µM and inactive = higher.
How the values were obtained:
Test in all cases: growth of human tumour cells (NCI), 48 h
U-251 = tested on: U-251
UO-31 = tested on: UO-31
SW-620 = tested on: SW-620
CAKI-1 = tested on: CAKI-1
SK-MEL-5 = tested on: SK-MEL-5
HCT-15 = tested on: HCT-15
A549 = tested on: A549
SF-539 = tested on: SF-539
NCI-H460 = tested on: NCI-H460
SF-268 = tested on: SF-268
HCT-116 = tested on: HCT-116
OVCAR-8 = tested on: OVCAR-8
IGROV-1 = tested on: IGROV-1
SN12C = tested on: SN12C
A498 = tested on: A498
HCC 2998 = tested on: HCC 2998
DLD-1 = tested on: DLD-1
HOP-18 = tested on: HOP-18
MOLT-4 = tested on: MOLT-4
KM12 = tested on: KM12
SNB-19 = tested on: SNB-19
RXF 393 = tested on: RXF 393
COLO 205 = tested on: COLO 205
HL-60 = tested on: HL-60
UACC-62 = tested on: UACC-62
EKVX = tested on: EKVX
LXFL 529 = tested on: LXFL 529
OVCAR-5 = tested on: OVCAR-5
DMS-273 = tested on: DMS-273
NCI-H226 = tested on: NCI-H226
SK-MEL-2 = tested on: SK-MEL-2
TK-10 = tested on: TK-10
SF-295 = tested on: SF-295
Malme-3M = tested on: Malme-3M
OVCAR-4 = tested on: OVCAR-4
ACHN = tested on: ACHN
DMS-114 = tested on: DMS-114
M19-MEL = tested on: M19-MEL
M14 = tested on: M14
SNB-78 = tested on: SNB-78
CCRF-CEM = tested on: CCRF-CEM
SNB-75 = tested on: SNB-75
NCI-H23 = tested on: NCI-H23
K562 = tested on: K562
HOP-62 = tested on: HOP-62
OVCAR-3 = tested on: OVCAR-3
RPMI-8226 = tested on: RPMI-8226
NCI-H522 = tested on: NCI-H522
KM-20L2 = tested on: KM-20L2
SK-OV-3 = tested on: SK-OV-3
UACC-257 = tested on: UACC-257
786-0 = tested on: 786-0
XF498 = tested on: XF498
HT-29 = tested on: HT-29
HOP-92 = tested on: HOP-92
SK-MEL-28 = tested on: SK-MEL-28
LOX IMVI = tested on: LOX IMVI
SR = tested on: SR

## CC(=O)O[C@H]1CC[C@@]2(C)C(=CC[C@@H]3C2CC[C@]2(C)Nc4nc5ccccc5cc4CC32)C1 (stereo partly drawn)
U-251
  GI50: 2.67 µM (inactive)
UO-31
  GI50: 4.92 µM (inactive)
SW-620
  GI50: 2.59 µM (inactive)
CAKI-1
  GI50: 4.28 µM (inactive)
SK-MEL-5
  GI50: 4.1 µM (inactive)
HCT-15
  GI50: 2.51 µM
A549
  GI50: 3.34 µM (inactive)
SF-539
  GI50: 3.78 µM (inactive)
NCI-H460
  GI50: 4.57 µM (inactive)
SF-268
  GI50: 4.2 µM (inactive)
HCT-116
  GI50: 1.86 µM (inactive)
OVCAR-8
  GI50: 3.13 µM (inactive)
IGROV-1
  GI50: 11.7 µM (inactive)
SN12C
  GI50: 7.1 µM (inactive)
A498
  GI50: 5.47 µM (inactive)
HCC 2998
  GI50: 2.98 µM (inactive)
DLD-1
  GI50: 3.72 µM (inactive)
HOP-18
  GI50: 3.94 µM (inactive)
MOLT-4
  GI50: 3.3 µM (inactive)
KM12
  GI50: 3.88 µM (inactive)
SNB-19
  GI50: 2.97 µM (inactive)
RXF 393
  GI50: 2.07 µM (inactive)
COLO 205
  GI50: 7.66 µM (inactive)
HL-60
  GI50: 4.32 µM (inactive)
UACC-62
  GI50: 10.8 µM (inactive)
EKVX
  GI50: 5.74 µM (inactive)
LXFL 529
  GI50: 3.38 µM (inactive)
OVCAR-5
  GI50: 13.9 µM (inactive)
DMS-273
  GI50: 4.82 µM (inactive)
NCI-H226
  GI50: 3.05 µM (inactive)
SK-MEL-2
  GI50: 17 µM (inactive)
TK-10
  GI50: 5.31 µM (inactive)
SF-295
  GI50: 3.78 µM (inactive)
Malme-3M
  GI50: 6.55 µM (inactive)
OVCAR-4
  GI50: 8.53 µM (inactive)
ACHN
  GI50: 4.72 µM (inactive)
DMS-114
  GI50: 5.4 µM (inactive)
M19-MEL
  GI50: 3.59 µM (inactive)
M14
  GI50: 2.19 µM (inactive)
SNB-78
  GI50: 6.01 µM (inactive)
CCRF-CEM
  GI50: 3.54 µM (inactive)
SNB-75
  GI50: 2.65 µM (inactive)
NCI-H23
  GI50: 12.4 µM (inactive)
K562
  GI50: 3.21 µM (inactive)
HOP-62
  GI50: 13.3 µM (inactive)
OVCAR-3
  GI50: 2.5 µM (inactive)
RPMI-8226
  GI50: 8.65 µM (inactive)
NCI-H522
  GI50: 11.4 µM (inactive)
KM-20L2
  GI50: 1.77 µM (inactive)
SK-OV-3
  GI50: 2.82 µM (inactive)
UACC-257
  GI50: 3.66 µM (inactive)
786-0
  GI50: 3.28 µM (inactive)
XF498
  GI50: 5.89 µM (inactive)
HT-29
  GI50: 1.82 µM (inactive)

## C#C[C@]1(O)CCC2C3CCc4cc(Oc5nc(F)nc(-c6c7cc8ccccc8cc7c7n6CCS7)n5)ccc4C3CCC21C (stereo partly drawn)
U-251
  GI50: 39.4 µM (inactive)
UO-31
  GI50: > 100 µM (inactive)
SW-620
  GI50: 44.3 µM (inactive)
SK-MEL-5
  GI50: 25.4 µM (inactive)
A549
  GI50: 41.3 µM (inactive)
SF-539
  GI50: 30.1 µM (inactive)
NCI-H460
  GI50: 33.1 µM (inactive)
SF-268
  GI50: 56.9 µM (inactive)
HCT-116
  GI50: 33 µM (inactive)
OVCAR-8
  GI50: 53.8 µM (inactive)
IGROV-1
  GI50: 50.7 µM (inactive)
SN12C
  GI50: 41.5 µM (inactive)
HCC 2998
  GI50: 85.5 µM (inactive)
DLD-1
  GI50: 54.6 µM (inactive)
HOP-18
  GI50: > 100 µM (inactive)
MOLT-4
  GI50: 49.8 µM (inactive)
HOP-92
  GI50: > 100 µM (inactive)
KM12
  GI50: 33.1 µM (inactive)
SNB-19
  GI50: > 100 µM (inactive)
RXF 393
  GI50: 28.1 µM (inactive)
COLO 205
  GI50: 20.6 µM (inactive)
HL-60
  GI50: 36.7 µM (inactive)
UACC-62
  GI50: 20.8 µM (inactive)
EKVX
  GI50: 11.4 µM (inactive)
LXFL 529
  GI50: 39.5 µM (inactive)
DMS-273
  GI50: 23.8 µM (inactive)
NCI-H226
  GI50: > 100 µM (inactive)
SK-MEL-2
  GI50: 28.8 µM (inactive)
TK-10
  GI50: 71.3 µM (inactive)
SF-295
  GI50: 34 µM (inactive)
Malme-3M
  GI50: 53.6 µM (inactive)
ACHN
  GI50: > 100 µM (inactive)
DMS-114
  GI50: 21.5 µM (inactive)
M19-MEL
  GI50: 30.3 µM (inactive)
M14
  GI50: 29.2 µM (inactive)
SNB-78
  GI50: > 100 µM (inactive)
CCRF-CEM
  GI50: 49.3 µM (inactive)
SNB-75
  GI50: 32.9 µM (inactive)
NCI-H23
  GI50: 54.1 µM (inactive)
K562
  GI50: 37.7 µM (inactive)
HOP-62
  GI50: 43.3 µM (inactive)
SK-MEL-28
  GI50: 48.9 µM (inactive)
OVCAR-3
  GI50: 44.7 µM (inactive)
RPMI-8226
  GI50: 41.5 µM (inactive)
NCI-H522
  GI50: 21.3 µM (inactive)
KM-20L2
  GI50: 32.7 µM (inactive)
SK-OV-3
  GI50: 45.4 µM (inactive)
UACC-257
  GI50: 77.6 µM (inactive)
LOX IMVI
  GI50: 43 µM (inactive)
786-0
  GI50: 51.8 µM (inactive)
XF498
  GI50: > 100 µM (inactive)
HT-29
  GI50: 26.2 µM (inactive)

## O=C1c2nn(-c3ccccc3)nc2C(c2ccccc2)N1c1ccccc1 (stereo not drawn)
U-251
  GI50: 95.3 µM (inactive)
UO-31
  GI50: > 100 µM (inactive)
SW-620
  GI50: > 100 µM (inactive)
SR
  GI50: > 100 µM (inactive)
CAKI-1
  GI50: > 100 µM (inactive)
SK-MEL-5
  GI50: > 100 µM (inactive)
HCT-15
  GI50: > 100 µM
A549
  GI50: > 100 µM (inactive)
SF-539
  GI50: 59.8 µM (inactive)
NCI-H460
  GI50: > 100 µM (inactive)
SF-268
  GI50: > 100 µM (inactive)
HCT-116
  GI50: > 100 µM (inactive)
OVCAR-8
  GI50: 52.8 µM (inactive)
IGROV-1
  GI50: 77.6 µM (inactive)
SN12C
  GI50: > 100 µM (inactive)
HCC 2998
  GI50: > 100 µM (inactive)
DLD-1
  GI50: > 100 µM (inactive)
HOP-18
  GI50: > 100 µM (inactive)
MOLT-4
  GI50: > 100 µM (inactive)
KM12
  GI50: > 100 µM (inactive)
SNB-19
  GI50: > 100 µM (inactive)
COLO 205
  GI50: > 100 µM (inactive)
UACC-62
  GI50: > 100 µM (inactive)
EKVX
  GI50: > 100 µM (inactive)
LXFL 529
  GI50: > 100 µM (inactive)
OVCAR-5
  GI50: > 100 µM (inactive)
DMS-273
  GI50: > 100 µM (inactive)
NCI-H226
  GI50: 34 µM (inactive)
SK-MEL-2
  GI50: > 100 µM (inactive)
SF-295
  GI50: 41.7 µM (inactive)
Malme-3M
  GI50: > 100 µM (inactive)
OVCAR-4
  GI50: > 100 µM (inactive)
ACHN
  GI50: > 100 µM (inactive)
DMS-114
  GI50: > 100 µM (inactive)
M19-MEL
  GI50: > 100 µM (inactive)
M14
  GI50: > 100 µM (inactive)
SNB-78
  GI50: 28.1 µM (inactive)
CCRF-CEM
  GI50: > 100 µM (inactive)
SNB-75
  GI50: 25 µM (inactive)
NCI-H23
  GI50: > 100 µM (inactive)
K562
  GI50: > 100 µM (inactive)
HOP-62
  GI50: 28.3 µM (inactive)
SK-MEL-28
  GI50: > 100 µM (inactive)
OVCAR-3
  GI50: > 100 µM (inactive)
RPMI-8226
  GI50: > 100 µM (inactive)
NCI-H522
  GI50: > 100 µM (inactive)
KM-20L2
  GI50: > 100 µM (inactive)
UACC-257
  GI50: > 100 µM (inactive)
LOX IMVI
  GI50: > 100 µM (inactive)
786-0
  GI50: 33.3 µM (inactive)
XF498
  GI50: > 100 µM (inactive)
HT-29
  GI50: > 100 µM (inactive)

Source: ChEMBL document CHEMBL1201862, “PubChem BioAssay data set” (2004)
